Tests used:
[1] = molecular target: T1, Recombinant human BACE-1 (rhBACE-1) (Homo sapiens, UniProt P56817); test: Proteolytic cleavage of APP (glyco)peptides by BACE-1, RP-HPLC peak integration; format: biochemical; settings: 100 μM substrate, 50 nM rhBACE-1, 0.1 M sodium acetate pH 4.0, 24 h, 37°C, dark; RP-HPLC peak integration at 214 nm, averaged from two injections, SD <5%
T1 construct: purchased R&D Systems #ES004 and #931-AS, respectively (so in the source)
Experimental: All APP-based substrates were prepared as 10 mM stocks in DMSO. Before proteolysis, the activity of BACE-1 was verified by the reaction with the fluorogenic BACE-1substrate Mca-[…](Dnp)RR-NH2 ([Koike et al., 1999]) as per the manufacturer’s instructions. For the proteolysis assay, APP-based substrates were diluted in BACE-1 activity buffer (0.1 M sodium acetate, pH 4.0) to the final assay concentration of 100 μM. BACE-1 was diluted to 50 nM final concentration. Reactions were incubated for 24 h at 37°C in the dark. After the incubation period, the enzyme cleavage solutions containing APP-based substrates and BACE-1 were analyzed using the analytical RP-HPLC method on the Aeris C18 column with 0.1% TFA in water (A) and 0.1% TFA in acetonitrile (B) as eluents and 0–60% B as the elution gradient over 30 min with a flow rate of 0.8 ml/min, and detection at 214 nm or the Vydac Denali C18 column with 0.1% TFA in water (A) and 0.1% TFA in acetonitrile (B) as eluents and 0–60% B as the elution gradient over 30 min with a flow rate of 1 ml/min, and detection at 214 nm. The identity of intact and cleaved (N- and C-terminal) fragments of (glyco)peptides in the absence and presence of BACE-1 (β-secretase) was confirmed by MALDI-TOF and their percentages were evaluated by the integration of the RP-HPLC peaks (averaged from two injections).
Glycosylation can alter substrate recognition and impact enzyme activity in either a positive (enhancing) or negative (inhibiting) manner ([Goettig, 2016]; [Goth et al., 2018]). The mucin-type O-linked glycosylation of a protein may not only affect its conformation but also affect its transport and localization in the cell ([Matsuura et al., 1989]; [Chen et al., 2002]). Proteases are highly regulated by post-translational modifications and drive fate, localization, and activity of many proteins ([Bond, 2019]). Certain mutations can also affect the subcellular localization of the cleavage event by crucial proteases and mediate a different cellular mechanism for the protein ([Haass et al., 1995]). […] Therefore, similar enzyme cleavage assays with BACE-1 were set up to explore the effect of the Swedish mutation, length of the amino acid sequence, glycan position and valency on the proteolytic susceptibility of 3–12. BACE1 produced two fragments upon cleavage of (glyco)peptides, for which yields were determined after 24 h treatment. The yields of intact peptide and fragments were evaluated by the RP-HPLC peaks integration (Table 3, and the Supplementary Material S20–S32).
3. Enzyme cleavage assays with APP (glyco)peptides 3-12 by RP-HPLC and MALDI-TOF MS
For the BACE1 enzyme cleavage assay, APP-based (glyco)peptide substrates were diluted in BACE1 activity buffer and incubated with BACE1 for 24 h at 37 °C in the dark. After the incubation period, the enzyme cleavage solutions containing APP-based (glyco)peptide substrates and BACE1 were analyzed using analytical RP-HPLC.
RP-HPLC gradient on Phenomenex Aeris Peptide C18 column (150 x 4.6 mm, 3.6 µm, 100Å):
Eluents were 0.1% TFA in water (A) and 0.1% TFA in acetonitrile (B). The elution gradient was 0-60%B in 30 minutes with a flow rate of 0.8 mL/min. Detection was at λ = 214 nm.
S*/T*= Ser(-α-GalNAc) 1/Thr(-α-GalNAc) 2
(a) APP665-680, 3 in activity buffer
(b) APP665-680 (3) + BACE1 in activity buffer […]

[2] = CD spectroscopy, secondary structure content by BeStSel; format: physicochemical; settings: for RC (%) random coil / α-H (%) α-helix / β-AP (%) anti-parallel β-sheet / β-P (%) parallel β-sheet / β-T (%) β-turn: CD, BeStSel, 0.065 mg/ml, 25°C
Experimental: All (glyco)peptides were analyzed for their secondary structure using circular dichroism (CD) spectroscopy on a Jasco-810 spectropolarimeter (Jasco, Easton, MD) in three solvent systems: water, 10 mM sodium phosphate buffer (pH 7.4), and 50% trifluoroethanol (TFE) in water (v/v) mixture. The CD spectra were recorded using a quartz cell of 1 mm optical path length over a wavelength range of […] with a scanning speed of 100 nm/min and a response time of 4 s at 25°C. A concentration of 0.065 mg/ml, determined using the analytical RP-HPLC method, gave the […] signal-to-noise ratio for all (glyco)peptides. All spectra were baseline-corrected to account for the signal contribution from solvent and then converted into molar ellipticity (deg cm^2 dmol^−1) ([Sreerama and Woody, 2000]). Lastly, the percentages of all secondary structures were determined using the BeStSel method ([Micsonai et al., 2018]; [Singh et al., 2021]).
To study the role of O-glycosylation on the conformation of APP glycopeptides, circular dichroism (CD) spectroscopy was used to probe the secondary structure in three different solvents, water, sodium phosphate buffer (10 mM, pH 7.4), and 50% trifluoroethanol (TFE) in water (v/v) (Figure 1). The spectra were further analysed for secondary structure estimations by Beta Structure Selection (BeStSel) method, specifically designed for the analysis of beta sheet-rich proteins (Table 2) ([Micsonai et al., 2015], [2018]).

[3] = (B) 10 mM sodium phosphate buffer, pH 7.4

T1 sequence (P56817 46-457 limits assumed): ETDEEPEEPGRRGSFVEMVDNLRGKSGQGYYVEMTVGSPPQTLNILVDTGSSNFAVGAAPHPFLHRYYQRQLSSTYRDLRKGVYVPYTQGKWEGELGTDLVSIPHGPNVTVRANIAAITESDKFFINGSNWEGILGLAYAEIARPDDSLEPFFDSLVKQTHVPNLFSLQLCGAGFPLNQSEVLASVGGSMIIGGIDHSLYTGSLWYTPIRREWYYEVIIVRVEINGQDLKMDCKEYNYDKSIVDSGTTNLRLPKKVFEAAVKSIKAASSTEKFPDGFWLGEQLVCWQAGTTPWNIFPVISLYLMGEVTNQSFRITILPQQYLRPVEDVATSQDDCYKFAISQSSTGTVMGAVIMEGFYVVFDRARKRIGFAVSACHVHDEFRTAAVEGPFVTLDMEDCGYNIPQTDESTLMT

Compound	BACE-1 activity, Cleaved (%) [1] [%]	BACE-1 activity, Recovered (%) [1] [%]	other results
CC[C@H](C)[C@H](NC(=O)[C@@H](N)CCC(=O)O)C(=O)N[C@@H](CO)C(=O)N[C@@H](CCC(=O)O)C(=O)N[C@H](C(=O)N[C@@H](CCCCN)C(=O)N[C@@H](CCSC)C(=O)N[C@@H](CC(=O)O)C(=O)N[C@@H](C)C(=O)N[C@@H](CCC(=O)O)C(=O)N[C@@H](Cc1ccccc1)C(=O)N[C@@H](CCCNC(=N)N)C(=O)N[C@@H](Cc1c[nH]cn1)C(=O)N[C@@H](CC(=O)O)C(=O)N[C@@H](CO)C(=O)NCC(N)=O)C(C)C [compound 3]	4.48	95.5	–
CC[C@H](C)[C@H](NC(=O)[C@@H](N)CCC(=O)O)C(=O)N[C@@H](CO[C@H]1O[C@H](CO)[C@H](O)[C@H](O)[C@H]1NC(C)=O)C(=O)N[C@@H](CCC(=O)O)C(=O)N[C@H](C(=O)N[C@@H](CCCCN)C(=O)N[C@@H](CCSC)C(=O)N[C@@H](CC(=O)O)C(=O)N[C@@H](C)C(=O)N[C@@H](CCC(=O)O)C(=O)N[C@@H](Cc1ccccc1)C(=O)N[C@@H](CCCNC(=N)N)C(=O)N[C@@H](Cc1c[nH]cn1)C(=O)N[C@@H](CC(=O)O)C(=O)N[C@@H](CO)C(=O)NCC(N)=O)C(C)C [compound 4]	1.40	98.6	–
CC[C@H](C)[C@H](NC(=O)[C@@H](N)CCC(=O)O)C(=O)N[C@@H](CO)C(=O)N[C@@H](CCC(=O)O)C(=O)N[C@H](C(=O)N[C@@H](CC(N)=O)C(=O)N[C@@H](CC(C)C)C(=O)N[C@@H](CC(=O)O)C(=O)N[C@@H](C)C(=O)N[C@@H](CCC(=O)O)C(=O)N[C@@H](Cc1ccccc1)C(=O)N[C@@H](CCCNC(=N)N)C(=O)N[C@@H](Cc1c[nH]cn1)C(=O)N[C@@H](CC(=O)O)C(=O)N[C@@H](CO)C(=O)NCC(N)=O)C(C)C [compound 5]	96.2	3.82	–
CC[C@H](C)[C@H](NC(=O)[C@@H](N)CCC(=O)O)C(=O)N[C@@H](CO[C@H]1O[C@H](CO)[C@H](O)[C@H](O)[C@H]1NC(C)=O)C(=O)N[C@@H](CCC(=O)O)C(=O)N[C@H](C(=O)N[C@@H](CC(N)=O)C(=O)N[C@@H](CC(C)C)C(=O)N[C@@H](CC(=O)O)C(=O)N[C@@H](C)C(=O)N[C@@H](CCC(=O)O)C(=O)N[C@@H](Cc1ccccc1)C(=O)N[C@@H](CCCNC(=N)N)C(=O)N[C@@H](Cc1c[nH]cn1)C(=O)N[C@@H](CC(=O)O)C(=O)N[C@@H](CO)C(=O)NCC(N)=O)C(C)C [compound 6]	93.0	7.02	–

Second part, led by results:

BACE-1 activity, Cleaved (%) [1] [%]	BACE-1 activity, Recovered (%) [1] [%]	Compound	other results
3.40	96.6	CC[C@H](C)[C@H](N)C(=O)N[C@@H](CCCCN)C(=O)N[C@H](C(=O)N[C@@H](CCC(=O)O)C(=O)N[C@@H](CCC(=O)O)C(=O)N[C@H](C(=O)N[C@@H](CO)C(=O)N[C@@H](CCC(=O)O)C(=O)N[C@H](C(=O)N[C@@H](CCCCN)C(=O)N[C@@H](CCSC)C(=O)N[C@@H](CC(=O)O)C(=O)N[C@@H](C)C(=O)N[C@@H](CCC(=O)O)C(=O)N[C@@H](Cc1ccccc1)C(=O)N[C@@H](CCCNC(=N)N)C(=O)N[C@@H](Cc1c[nH]cn1)C(=O)N[C@@H](CC(=O)O)C(=O)N[C@@H](CO)C(=O)NCC(N)=O)C(C)C)[C@@H](C)CC)[C@@H](C)O [compound 7]	–
79.7	20.3	CC[C@H](C)[C@H](N)C(=O)N[C@@H](CCCCN)C(=O)N[C@H](C(=O)N[C@@H](CCC(=O)O)C(=O)N[C@@H](CCC(=O)O)C(=O)N[C@H](C(=O)N[C@@H](CO)C(=O)N[C@@H](CCC(=O)O)C(=O)N[C@H](C(=O)N[C@@H](CC(N)=O)C(=O)N[C@@H](CC(C)C)C(=O)N[C@@H](CC(=O)O)C(=O)N[C@@H](C)C(=O)N[C@@H](CCC(=O)O)C(=O)N[C@@H](Cc1ccccc1)C(=O)N[C@@H](CCCNC(=N)N)C(=O)N[C@@H](Cc1c[nH]cn1)C(=O)N[C@@H](CC(=O)O)C(=O)N[C@@H](CO)C(=O)NCC(N)=O)C(C)C)[C@@H](C)CC)[C@@H](C)O [compound 10]	–
98.1	1.90	CC[C@H](C)[C@H](N)C(=O)N[C@@H](CCCCN)C(=O)N[C@H](C(=O)N[C@@H](CCC(=O)O)C(=O)N[C@@H](CCC(=O)O)C(=O)N[C@H](C(=O)N[C@@H](CO)C(=O)N[C@@H](CCC(=O)O)C(=O)N[C@H](C(=O)N[C@@H](CC(N)=O)C(=O)N[C@@H](CC(C)C)C(=O)N[C@@H](CC(=O)O)C(=O)N[C@@H](C)C(=O)N[C@@H](CCC(=O)O)C(=O)N[C@@H](Cc1ccccc1)C(=O)N[C@@H](CCCNC(=N)N)C(=O)N[C@@H](Cc1c[nH]cn1)C(=O)N[C@@H](CC(=O)O)C(=O)N[C@@H](CO)C(=O)NCC(N)=O)C(C)C)[C@@H](C)CC)[C@@H](C)O[C@H]1O[C@H](CO)[C@H](O)[C@H](O)[C@H]1NC(C)=O [compound 11]	–
96.1	3.90	CC[C@H](C)[C@H](N)C(=O)N[C@@H](CCCCN)C(=O)N[C@H](C(=O)N[C@@H](CCC(=O)O)C(=O)N[C@@H](CCC(=O)O)C(=O)N[C@H](C(=O)N[C@@H](CO[C@H]1O[C@H](CO)[C@H](O)[C@H](O)[C@H]1NC(C)=O)C(=O)N[C@@H](CCC(=O)O)C(=O)N[C@H](C(=O)N[C@@H](CC(N)=O)C(=O)N[C@@H](CC(C)C)C(=O)N[C@@H](CC(=O)O)C(=O)N[C@@H](C)C(=O)N[C@@H](CCC(=O)O)C(=O)N[C@@H](Cc1ccccc1)C(=O)N[C@@H](CCCNC(=N)N)C(=O)N[C@@H](Cc1c[nH]cn1)C(=O)N[C@@H](CC(=O)O)C(=O)N[C@@H](CO)C(=O)NCC(N)=O)C(C)C)[C@@H](C)CC)[C@@H](C)O[C@H]1O[C@H](CO)[C@H](O)[C@H](O)[C@H]1NC(C)=O [compound 12]	–
4.12	95.9	IKT*EEIS*EVKM∼DAEFRHDSG [compound 9, native APP 661-680 glycopeptide with O-GalNAc on Thr^663 and Ser^667]	RC (%) random coil ([2]; (A) water): 22.4%; α-H (%) α-helix ([2]; (A) water): 12.8%; β-AP (%) anti-parallel β-sheet ([2]; (A) water): 48.2%; β-P (%) parallel β-sheet ([2]; (A) water): 0.0%; β-T (%) β-turn ([2]; (A) water): 16.6%; RC (%) random coil [2, 3]: 48.7%; α-H (%) α-helix [2, 3]: 9.5%; β-AP (%) anti-parallel β-sheet [2, 3]: 24.6%; β-P (%) parallel β-sheet [2, 3]: 0.0%; β-T (%) β-turn [2, 3]: 17.1%; RC (%) random coil ([2]; (C) TFE/water = 1:1 (v/v)): 0.0%; α-H (%) α-helix ([2]; (C) TFE/water = 1:1 (v/v)): 94.4%; β-AP (%) anti-parallel β-sheet ([2]; (C) TFE/water = 1:1 (v/v)): 0.0%; β-P (%) parallel β-sheet ([2]; (C) TFE/water = 1:1 (v/v)): 0.0%; β-T (%) β-turn ([2]; (C) TFE/water = 1:1 (v/v)): 5.6%; β-structure (anti-parallel β-sheet, parallel β-sheet, and β-turn) ([2]; water, sum of BeStSel contents): 64.8%
